{
  "source": "paper PMC9995496",
  "about": "“A screen for MeCP2-TBL1 interaction inhibitors using a luminescence-based assay” (Scientific Reports, 2023)",
  "note": "Where a name gives a salt, the structure may show the parent alone.",
  "data": [
    {"system": "PRKACA-PRKAR2A interaction (SmBiT-PRKACA / LgBiT-PRKAR2A), protein kinase A", "design": "NanoLuc complementation counter-screen in cell extract, PRKACA with PRKAR2A, loss of luminescence, detects NanoLuc interference", "details": "0.5 h, 20 µM; inhibitor", "units": {"Inh (PKA)": "%"}, "values": [
      {"smiles": "O=P1(NCCCl)OCCCN1CCCl", "note": "(centres unmarked) [UM0118931:03, Ifosfamide]", "Inh (PKA)": -0.3336},
      {"smiles": "COC1=C[C@@H]2[C@@H]3Cc4ccc(OC)c(O)c4[C@]2(CCN3C)CC1=O", "note": "[UM0142862:01, Sinomenine Hydrochloride]", "Inh (PKA)": 0.8653}
    ]},
    {"system": "PRKACA-PRKAR2A interaction (SmBiT-PRKACA / LgBiT-PRKAR2A), protein kinase A", "design": "NanoLuc complementation counter-screen in cell extract, PRKACA with PRKAR2A, loss of luminescence, detects NanoLuc interference", "details": "counter-screen for NanoLuc interference, 0.5 h, 20 µM, inhibitor, Inh (PKA)", "units": {"Inh (PKA)": "%"}, "values": [
      {"smiles": "O=C(c1ccccc1)c1ccc2n1CCC2C(=O)O", "note": "(centres unmarked) [UM0142511:01, Ketorolac]", "Inh (PKA)": 0.7443},
      {"smiles": "C[C@H]1c2cccc(O)c2C(=O)C2=C(O)[C@]3(O)C(=O)C(C(N)=O)=C(O)[C@@H](N(C)C)[C@@H]3[C@@H](O)[C@@H]21", "note": "[UM0141681:01, Doxycycline hyclate]", "Inh (PKA)": 1.233}
    ]},
    {"system": "PRKACA-PRKAR2A interaction (SmBiT-PRKACA / LgBiT-PRKAR2A), protein kinase A", "design": "NanoLuc complementation counter-screen in cell extract, PRKACA with PRKAR2A, loss of luminescence, detects NanoLuc interference", "details": "counter-screen for NanoLuc interference; 0.5 h, 20 µM; inhibitor", "units": {"Inh (PKA)": "%"}, "values": [
      {"smiles": "CCCN[C@H]1CCc2nc(N)sc2C1", "note": "[UM0142273:01, Pramipexole]", "Inh (PKA)": -0.01445},
      {"smiles": "Cn1cc(-c2cnn3c(N)c(Br)c([C@@H]4CCCNC4)nc23)cn1", "note": "[UM0142059:01, MK-8776 (SCH-900776)]", "Inh (PKA)": 4.838},
      {"smiles": "O=C(Nc1ccccc1)Nc1ccc(-c2ccc(C(=O)[C@@H]3CCC[C@H]3C(=O)O)cc2)cc1", "note": "[UM0141822:01, A922500]", "Inh (PKA)": 32.88},
      {"smiles": "C[C@@H]1CN(CC(=O)Nc2ccc3c(c2)Cc2cccc(-c4cc(=O)cc(N5CCOCC5)o4)c2S3)C[C@H](C)O1", "note": "[UM0142000:01, KU-60019]", "Inh (PKA)": 8.664},
      {"smiles": "COc1cc(Oc2ccnc3cc(OC)c(OC)cc23)ccc1NC(=O)NC(C)c1nccs1", "note": "(centres unmarked) [UM0141572:01, Ki20227]", "Inh (PKA)": 11.8},
      {"smiles": "CN[C@H](CC(C)C)C(=O)N[C@H]1C(=O)N[C@@H](CC(N)=O)C(=O)N[C@H]2C(=O)N[C@H]3C(=O)N[C@H](C(=O)N[C@H](C(=O)O)c4cc(O)cc(O)c4-c4cc3ccc4O)[C@H](O)c3ccc(c(Cl)c3)Oc3cc2cc(c3O[C@@H]2O[C@H](CO)[C@@H](O)[C@H](O)[C@H]2O[C@H]2C[C@](C)(N)[C@H](O)[C@H](C)O2)Oc2ccc(cc2Cl)[C@H]1O", "note": "[UM0142186:01, Vancomycin hydrochloride]", "Inh (PKA)": -0.993},
      {"smiles": "Clc1ccc2c(c1)C(N1CCNCC1)=Nc1ccccc1O2", "note": "[UM0133517:02, Amoxapine]", "Inh (PKA)": 7.389},
      {"smiles": "CCNC(=O)Nc1ccc(-c2nc3c(c(N4CCOC[C@@H]4C)n2)CCN(C2COC2)C3)cc1", "note": "[UM0141407:01, GDC-0349]", "Inh (PKA)": 3.779},
      {"smiles": "NC(=O)c1cnc(N[C@@H]2CCCC[C@@H]2N)nc1Nc1cccc(-n2nccn2)c1", "note": "[UM0141609:01, PRT062607 Hydrochloride]", "Inh (PKA)": 22.19},
      {"smiles": "CN(C)CCCC1(c2ccc(F)cc2)OCc2cc(C#N)ccc21", "note": "(centres unmarked) [UM0142779:01, Citalopram hydrobromide]", "Inh (PKA)": 0.9875},
      {"smiles": "Cc1cccc(Nc2ccccc2C(=O)O)c1C", "note": "[UM0118444:03, Mefenamic Acid]", "Inh (PKA)": 19.56},
      {"smiles": "c1nc2c(NC3CCCCC3)nc(Nc3ccc(N4CCOCC4)cc3)nc2[nH]1", "note": "[UM0141614:01, Reversine]", "Inh (PKA)": 32.72},
      {"smiles": "Cn1cnc2c(F)c(Nc3ccc(Br)cc3F)c(C(=O)NOCCO)cc21", "note": "[UM0141435:01, MEK162 (ARRY-162, ARRY-438162)]", "Inh (PKA)": 13.83},
      {"smiles": "Cc1[nH]nc2ccc(-c3cncc(OC[C@@H](N)Cc4ccccc4)c3)cc12", "note": "[UM0142094:01, A-674563]", "Inh (PKA)": 19.6},
      {"smiles": "O=C(O)C(=O)c1cn(Cc2ccccc2)c2ccc(-c3ccc(OC(F)(F)F)cc3)cc12", "note": "[UM0142688:01, Tiplaxtinin(PAI-039)]", "Inh (PKA)": 36.69},
      {"smiles": "N[C@@H](CCNCc1ccc(Cl)cc1)C(=O)N1CCCCC1", "note": "[UM0142648:01, UAMC 00039 dihydrochloride]", "Inh (PKA)": -0.6597},
      {"smiles": "Cc1cc(Nc2cc(N3CCN(C)CC3)nc(Sc3ccc(NC(=O)C4CC4)cc3)n2)n[nH]1", "note": "[UM0127961:02, VX-680 (MK-0457,Tozasertib)]", "Inh (PKA)": 9.039},
      {"smiles": "CC(C)CN(C[C@@H](O)[C@H](Cc1ccccc1)NC(=O)O[C@H]1CO[C@H]2OCC[C@H]21)S(=O)(=O)c1ccc(N)cc1", "note": "[UM0141950:01, Darunavir]", "Inh (PKA)": 4.833},
      {"smiles": "C=CC[N+]1([C@H]2C[C@H]3[C@@H]4CC[C@H]5C[C@H](O)[C@@H](N6CCOCC6)C[C@]5(C)[C@H]4CC[C@]3(C)[C@H]2OC(C)=O)CCCC1", "note": "[UM0141392:01, Rocuronium Bromide]", "Inh (PKA)": 2.002},
      {"smiles": "O[C@@H](c1cc(C(F)(F)F)nc2c(C(F)(F)F)cccc12)[C@H]1CCCCN1", "note": "[UM0141561:02, Mefloquine hydrochloride]", "Inh (PKA)": 15.66},
      {"smiles": "CNc1nc(-c2ccc3c(N)n[nH]c3c2)cc(N2C[C@@H](C(=O)NC3CCCCC3)CC[C@H]2C)n1", "note": "[UM0142430:01, GSK2334470]", "Inh (PKA)": 2.681},
      {"smiles": "C#CCN(C)Cc1ccccc1", "note": "[UM0118374:03, Pargyline (hydrochloride)]", "Inh (PKA)": -0.007894},
      {"smiles": "COc1ccc([C@H]2CNC(=O)C2)cc1OC1CCCC1", "note": "[UM0141786:02, S- (+)-Rolipram]", "Inh (PKA)": 3.135},
      {"smiles": "CN(C)CCN1C(=O)c2cccc3cc(N)cc(c23)C1=O", "note": "[UM0141483:01, Amonafide]", "Inh (PKA)": 12.14},
      {"smiles": "O=[N+]([O-])c1ccc2c(c1)S(=O)(=O)C=C2", "note": "[UM0141450:01, Stattic]", "Inh (PKA)": 9.361},
      {"smiles": "COc1cc(C(=O)N2CCC(N3CCN(C)CC3)CC2)ccc1Nc1ncc2c(n1)N(C)c1ccccc1C(=O)N2C", "note": "[UM0141580:01, LRRK2-IN-1]", "Inh (PKA)": 12.15},
      {"smiles": "N=C1NC(=O)/C(=C/c2ccc(O)cc2)S1", "note": "[UM0142634:01, Mirin]", "Inh (PKA)": 13.24},
      {"smiles": "CCCCC(=O)O[C@H]1CC[C@H]2[C@@H]3CCc4cc(O)ccc4[C@H]3CC[C@]12C", "note": "[UM0142282:01, Estradiol valerate]", "Inh (PKA)": 9.885},
      {"smiles": "CC(C)[C@H](O)C(=O)N[C@@H](C)C(=O)N[C@@H]1C(=O)N(C)CCc2ccccc21", "note": "[UM0141939:01, Semagacestat (LY450139)]", "Inh (PKA)": -0.02723},
      {"smiles": "C=C(Cc1ccccc1Cl)C(=O)OCC", "note": "[UM0142823:01, INF39]", "Inh (PKA)": 8.84},
      {"smiles": "Cc1cc([C@@H](C)Nc2ccccc2C(=O)O)c2nc(N3CCOCC3)cc(=O)n2c1", "note": "[UM0141893:01, AZD6482]", "Inh (PKA)": 55.75},
      {"smiles": "CC1(C)O[C@@H]2[C@@H](CO[C@@]3(COS(N)(=O)=O)OC(C)(C)O[C@@H]23)O1", "note": "[UM0141808:01, Topiramate]", "Inh (PKA)": 0.4952},
      {"smiles": "NC(=O)c1ccccc1Nc1ccnc(Nc2cccc(O)c2)n1", "note": "[UM0141542:01, DB07268]", "Inh (PKA)": 39.9},
      {"smiles": "CC(C)(C)C(=O)Oc1ccc(S(=O)(=O)Nc2ccccc2C(=O)NCC(=O)O)cc1", "note": "[UM0142761:01, Sivelestat (ONO-5046)]", "Inh (PKA)": -0.1491},
      {"smiles": "OC[C@H]1O[C@@H](n2cnc3c2N=CNC[C@H]3O)C[C@@H]1O", "note": "[UM0141599:01, Pentostatin]", "Inh (PKA)": 1.284},
      {"smiles": "O=C(NC(Cc1cc(=O)[nH]c2ccccc12)C(=O)O)c1ccc(Cl)cc1", "note": "(centres unmarked) [UM0142401:01, Rebamipide]", "Inh (PKA)": 2.079},
      {"smiles": "Cn1c(=O)c2c(ncn2CC(O)CO)n(C)c1=O", "note": "(centres unmarked) [UM0052188:04, Dyphylline]", "Inh (PKA)": 1.648},
      {"smiles": "CN(C)CCCNC(=O)c1ccc(-c2cc(O)c3ncccc3c2)cc1", "note": "[UM0142607:01, ML324]", "Inh (PKA)": 3.619},
      {"smiles": "CCCCCCCCCC(=O)N[C@@H](Cc1c[nH]c2ccccc12)C(=O)N[C@H](CC(N)=O)C(=O)N[C@@H](CC(=O)O)C(=O)N[C@@H]1C(=O)NCC(=O)N[C@@H](CCCN)C(=O)N[C@@H](CC(=O)O)C(=O)N[C@H](C)C(=O)N[C@@H](CC(=O)O)C(=O)NCC(=O)N[C@H](CO)C(=O)N[C@@H]([C@H](C)CC(=O)O)C(=O)N[C@@H](CC(=O)c2ccccc2N)C(=O)O[C@@H]1C", "note": "[UM0141387:01, Daptomycin]", "Inh (PKA)": 0.4906},
      {"smiles": "COc1cc(N2CCC(N)CC2)ccc1Nc1ncc(Cl)c(-c2c[nH]c3ccccc23)n1", "note": "[UM0142097:01, AZD-3463]", "Inh (PKA)": 51}
    ]}
  ]
}
